Assay results from ChEMBL document CHEMBL1129772, “Synthesis and radical scavenging activity of 3,3-dialkyl-3,4-dihydro-isoquinoline 2-oxides” (Bioorg Med Chem Lett, 1996).

test system: Liposome; assay: In vitro inhibition of peroxyl radical-dependent oxidation of liposomes from soybean phosphatidylcholine by ethanol injection.; format: functional, Glycine max

With `CC1(C)Cc2cc(Cl)cc(Cl)c2C=[N+]1[O-]` as the compound, how does the IC50 read?
Its IC50 is 18 µM.

`[O-][N+]1=Cc2ccccc2CC12CCCCC2` was tested. Which IC50 did it give?
The IC50 was 8 µM.

For `COc1ccc2c(c1)C=[N+]([O-])C(C)(C)C2`, which IC50 is on record?
Its IC50 is 67 µM.

For `CC1(C)Cc2ccccc2C=[N+]1[O-]`, which IC50 is on record?
The IC50 was 200 µM.

For `COc1cc2c(cc1OC)CC(C)(C)[N+]([O-])=C2`, which IC50 is on record?
Its IC50 is 130 µM.

For `CC1(C)Cc2cc(F)ccc2C=[N+]1[O-]`, which IC50 is on record?
The IC50 was 160 µM.

For `[O-][N+]1=Cc2ccccc2CC12CCCC2`, which IC50 is on record?
Its IC50 is 21 µM.

For `CC1(C)Cc2c(Cl)cccc2C=[N+]1[O-]`, which IC50 is on record?
Its IC50 is 24 µM.

With `COc1ccc2c(c1)CC1(CCCCC1)[N+]([O-])=C2` as the compound, how does the IC50 read?
Its IC50 is 11 µM.

How did the IC50 turn out when `CC(C)(C)/[N+]([O-])=C/c1ccccc1` was run?
Its IC50 is 2170 µM.

For `COc1cccc2c1C=[N+]([O-])C1(CCCCC1)C2`, which IC50 is on record?
Its IC50 is 38 µM.

How did the IC50 turn out when `CC1(C)Cc2cc(Cl)ccc2C=[N+]1[O-]` was run?
The IC50 was 55 µM.

Which IC50 does the source give for `CC1(C)Cc2cccc(Cl)c2C=[N+]1[O-]` here?
Its IC50 is 45 µM.

With `CC1(C)Cc2ccc(Cl)cc2C=[N+]1[O-]` as the compound, how does the IC50 read?
The IC50 was 41 µM.

`CC1(C)Cc2ccc(F)cc2C=[N+]1[O-]` was tested. Which IC50 did it give?
Its IC50 is 67 µM.

Which IC50 does the source give for `COc1ccc2c(c1)CC(C)(C)[N+]([O-])=C2` here?
Its IC50 is 69 µM.

For `[O-][N+]1=Cc2cc(Cl)ccc2CC12CCCCC2`, which IC50 is on record?
Its IC50 is 3 µM.

Which IC50 does the source give for `COc1ccc(F)c2c1CC(C)(C)[N+]([O-])=C2` here?
Its IC50 is 56 µM.
